Results on 18 compounds are retold here after patent US20190241573A1, “ISOQUINOLINE DERIVATIVES AS PERK INHIBITORS” (GlaxoSmithKline Intellectual Property Development Limited, priority 2016, published 2019).

Some results are limits rather than exact numbers.

In one assay the test system is prion infected mice.
Experiment: not given
As to conditions: cited from earlier work.
For `Cn1cc(-c2ccc3c(c2)CCN3C(=O)Cc2cccc(C(F)(F)F)c2)c2c(N)ncnc21` [GSK2606414, 7-methyl-5-(1-{[3-(trifluoromethyl)phenyl]acetyl}-2,3-dihydro-1H-indol-5-yl)-7H-pyrrolo[2,3-d]pyrimidin-4-amine], the “neuroprotective effect and clinical signs of disease” value was “provide a neuroprotective effect and prevent clinical signs of disease”.

The target in another assay is T1, GST-PERK enzyme (Homo sapiens, UniProt Q9NZJ5).
T1 sequence (Q9NZJ5 30-1116): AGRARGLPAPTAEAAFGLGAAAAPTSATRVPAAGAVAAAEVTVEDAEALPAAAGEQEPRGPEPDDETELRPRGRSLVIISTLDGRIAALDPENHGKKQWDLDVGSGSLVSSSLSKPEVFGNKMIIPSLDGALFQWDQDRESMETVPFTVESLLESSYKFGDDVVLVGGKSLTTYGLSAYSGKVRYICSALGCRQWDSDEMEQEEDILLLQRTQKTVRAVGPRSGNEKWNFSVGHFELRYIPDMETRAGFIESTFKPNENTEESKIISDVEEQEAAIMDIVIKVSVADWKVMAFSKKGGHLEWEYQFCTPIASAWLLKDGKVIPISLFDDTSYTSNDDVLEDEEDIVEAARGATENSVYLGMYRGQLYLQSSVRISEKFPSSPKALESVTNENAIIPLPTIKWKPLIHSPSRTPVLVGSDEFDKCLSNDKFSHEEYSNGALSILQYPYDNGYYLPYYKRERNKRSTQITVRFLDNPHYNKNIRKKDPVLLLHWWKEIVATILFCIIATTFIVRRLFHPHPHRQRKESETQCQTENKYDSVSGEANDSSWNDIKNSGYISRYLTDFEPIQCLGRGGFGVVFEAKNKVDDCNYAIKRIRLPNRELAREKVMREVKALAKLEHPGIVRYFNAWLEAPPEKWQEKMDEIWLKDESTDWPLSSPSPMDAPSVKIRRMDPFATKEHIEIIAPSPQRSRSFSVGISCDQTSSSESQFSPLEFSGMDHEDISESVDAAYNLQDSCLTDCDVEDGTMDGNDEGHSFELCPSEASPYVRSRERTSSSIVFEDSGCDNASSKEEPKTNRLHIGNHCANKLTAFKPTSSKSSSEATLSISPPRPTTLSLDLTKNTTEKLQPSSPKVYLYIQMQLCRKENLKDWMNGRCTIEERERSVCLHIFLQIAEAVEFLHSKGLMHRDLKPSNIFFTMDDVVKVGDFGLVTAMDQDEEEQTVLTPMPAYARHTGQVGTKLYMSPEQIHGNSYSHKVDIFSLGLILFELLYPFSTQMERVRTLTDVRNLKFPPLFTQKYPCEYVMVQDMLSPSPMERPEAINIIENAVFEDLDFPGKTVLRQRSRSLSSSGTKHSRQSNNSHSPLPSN
The assay can be described thus: PERK enzyme assay. The settings on record: 5 μM ATP; biotin-eIF2α substrate, 60 minutes; read-out: average PERK Enzyme (5 μM ATP) pIC50 (converted). It is filed as biochemical. Here is the method: Example 61: PERK Enzyme Assay
Compounds of the invention were assayed for PERK enzyme inhibitory activity with modifications to previously reported conditions (Axten et al. J. Med. Chem., 2012, 55, 7193-7207). Briefly, various concentrations of compounds (maximum 1% DMSO) were dispensed into 384-well plates containing GST-PERK enzyme. ATP and biotin-elF2α were added and after 60 minutes the reaction was quenched. After 2 hrs, a fluorescence plate reader was used to measure inhibition and pIC50s were calculated. The activity of compound 1 was determined at an ATP concentration=5 μM. For compounds 2-20 the PERK activity was determined at ATP concentration=500 μM ATP.
Consider `Cn1cc(-c2ccc3cc(Cc4ccccc4)ncc3c2)c2c(N)ncnc21` [Example 1, 5-(3-Benzylisoquinolin-7-yl)-7-methyl-7H-pyrrolo[2,3-d]pyrimidin-4-amine], for which the IC50 was 15.8 nM.

The assay is the same for the next values; noted with them: 500 μM ATP; biotin-eIF2α substrate, 60 minutes; read-out: average PERK Enzyme (500 μM ATP) pIC50 (converted).
Take `Cn1cc(-c2ccc3cc(Cc4cc(F)cc(F)c4)ncc3c2F)c2c(N)ncnc21` [Example 4, 5-(3-(3,5-Difluorobenzyl)-8-fluoroisoquinolin-7-yl)-7-methyl-7H-pyrrolo[2,3-d]pyrimidin-4-amine]: the IC50 was 251 nM. Still for that read-out and setting: the result for `CCn1cc(-c2ccc3cc(Cc4cc(F)cc(F)c4)ncc3c2F)c2c(N)ncnc21` [Example 6, 5-(3-(3,5-difluorobenzyl)-8-fluoroisoquinolin-7-yl)-7-ethyl-7H-pyrrolo[2,3-d]pyrimidin-4-amine] reads 158 nM. For `Cc1cc(C)cc(C(=O)c2cc3ccc(-c4cn(C)c5ncnc(N)c45)cc3cn2)c1` [Example 15, (7-(4-amino-7-methyl-7H-pyrrolo[2,3-d]pyrimidin-5-yl)isoquinolin-3-yl)(3,5-dimethylphenyl)methanone], the IC50 was over 3980 nM. `Cn1cc(-c2ccc3cc(Cc4cc(F)ccc4F)ncc3c2F)c2c(N)ncnc21` [Example 17, 5-(3-(2,5-difluorobenzyl)-8-fluoroisoquinolin-7-yl)-7-methyl-7H-pyrrolo[2,3-d]pyrimidin-4-amine]: the IC50 is 1000 nM. On the same count and under the same terms, the same measure for `Cn1cc(-c2ccc3cc(Cc4cc(F)cc(C(F)(F)F)c4)ncc3c2F)c2c(N)ncnc21` [Example 18, 5-(8-fluoro-3-(3-fluoro-5-(trifluoromethyl)benzyl)isoquinolin-7-yl)-7-methyl-7H-pyrrolo[2,3-d]pyrimidin-4-amine]: over 3980 nM. Same read-out and setting: the same measure for `Cn1cc(-c2ccc3cc(Cc4cccc(C(F)(F)F)c4)ncc3c2F)c2c(N)ncnc21` [Example 19, 5-(8-fluoro-3-(3-(trifluoromethyl)benzyl)isoquinolin-7-yl)-7-methyl-7H-pyrrolo[2,3-d]pyrimidin-4-amine]: over 3980 nM; for `Nc1ncnc2c1c(-c1ccc3cc(Cc4cc(F)cc(F)c4)ncc3c1F)cn2CC(F)(F)F` [Example 23, 5-(3-(3,5-difluorobenzyl)-8-fluoroisoquinolin-7-yl)-7-(2,2,2-trifluoroethyl)-7H-pyrrolo[2,3-d]pyrimidin-4-amine]: over 3980 nM. Same read-out and setting: the result for `Cc1nc(N)c2c(-c3ccc4cc(Cc5cc(F)cc(F)c5)ncc4c3F)cn(C)c2n1` [Example 25, 5-(3-(3,5-difluorobenzyl)-8-fluoroisoquinolin-7-yl)-2,7-dimethyl-7H-pyrrolo[2,3-d]pyrimidin-4-amine] reads over 3980 nM. With `Cc1nc(N)c2c(-c3ccc4cc(Cc5cc(F)cc(F)c5)ncc4c3F)cn(C3CC3)c2n1` [Example 28, 7-cyclopropyl-5-(3-(3,5-difluorobenzyl)-8-fluoroisoquinolin-7-yl)-2-methyl-7H-pyrrolo[2,3-d]pyrimidin-4-amine], the IC50 was 2510 nM.

For the compound `Nc1ncnc2c1c(-c1ccc3cc(Cc4cc(F)cc(F)c4)ncc3c1F)nn2C1CC1` [Example 29, 1-cyclopropyl-3-(3-(3,5-difluorobenzyl)-8-fluoroisoquinolin-7-yl)-1H-pyrazolo[3,4-d]pyrimidin-4-amine], the IC50 is over 3980 nM.

As for `Cc1ccccc1Cc1cc2ccc(-c3cn(C4CC4)c4ncnc(N)c34)c(F)c2cn1` [Example 38, 7-cyclopropyl-5-(8-fluoro-3-(2-methylbenzyl)isoquinolin-7-yl)-7H-pyrrolo[2,3-d]pyrimidin-4-amine], the IC50 was 12.6 nM. Consider `Nc1ncnc2c1c(-c1ccc3cc(Cc4cc(C(F)(F)F)ccc4F)ncc3c1F)cn2C1CC1` [Example 41, 7-cyclopropyl-5-(8-fluoro-3-(2-fluoro-5-(trifluoromethyl)benzyl)isoquinolin-7-yl)-7H-pyrrolo[2,3-d]pyrimidin-4-amine], for which the IC50 was 100 nM. The same measure, in the same setting: the same measure for `CN(C)CCn1cc(-c2ccc3cc(Cc4cc(F)cc(F)c4)ncc3c2F)c2c(N)ncnc21` [Example 47, 5-(3-(3,5-difluorobenzyl)-8-fluoroisoquinolin-7-yl)-7-(2-(dimethylamino)ethyl)-7H-pyrrolo[2,3-d]pyrimidin-4-amine]: 1580 nM; for `Nc1ncnc2c1c(-c1ccc3cc(Cc4cccc(Cl)c4F)ncc3c1F)cn2C1CC1` [Example 51, 5-(3-(3-chloro-2-fluorobenzyl)-8-fluoroisoquinolin-7-yl)-7-cyclopropyl-7H-pyrrolo[2,3-d]pyrimidin-4-amine]: 3.16 nM. The same measure, in the same setting: the result for `Nc1ncnc2c1c(-c1ccc3cc(Cc4cncc(F)c4)ncc3c1F)cn2C1CC1` [Example 53, 7-cyclopropyl-5-(8-fluoro-3-((5-fluoropyridin-3-yl)methyl)isoquinolin-7-yl)-7H-pyrrolo[2,3-d]pyrimidin-4-amine] reads 631 nM; that for `Nc1ncnn2ccc(-c3ccc4cc(Cc5cc(F)cc(F)c5)ncc4c3F)c12` [Example 58, 5-(3-(3,5-difluorobenzyl)-8-fluoroisoquinolin-7-yl)pyrrolo[2,1-f][1,2,4]triazin-4-amine], over 3980 nM.
